Source: patent publication US12472185B2, “Methods for killing antibiotic tolerant bacteria” (THE PENN STATE RESEARCH FOUNDATION, priority 2020, dated 2025)

Assays:
[1] = test system: S. aureus exponentially-growing cells; experiment: Killing at one MIC in PBS, NPIMA compared with cisplatin; type: cell-based, Staphylococcus aureus; conditions: 3 hr
Description: FIG. 7. NPIMA compared width cisplatin for killing Pseudomonas aeruginosa, Escherichia coli, and Staphylococcus aureus. Survival of exponentially-growing cells of P. aeruginosa PA14 (a), E. coli (b), and S. aureus (c) treated with one MIC of NPIMA (♦) and cisplatin (●) for 3 hr in PBS. DMSO (▴) and NaClO4 (*) were used as a negative controls. MIC, minimum inhibitory concentration; NPIMA, 5-nitro-3-phenyl-1H-indol-2-yl-methylamine hydrochloride.
For bacterial viability, cells were washed twice with 0.85% NaCl, resuspended in 1×PBS, and cell counts were determined via the drop assay (Donegan, Matyac, Seidler, & Porteous, 1991). For human cell viability, pre-cultured human cancer HT-29 cells were dispensed in 98 μl in 96-well plates with approximately 5,000 cells/well. NPIMA was added (2 μl) to produce concentrations of 5, 10, 100, and 200 μM. For controls, Triton X-100 (positive control) and DMSO (negative solvent control), were used, and the medium was used for background. Plates were incubated in a humidified incubator (37° C., 5% CO2) for 24 hr. Cell viability was determined via a cell counting kit (CCK-8 Kit, ab228554; Abcam), and cytotoxicity was determined via the lactate dehydrogenase (LDH) assay (LDH Assay Kit, MK401; Takara).

E coli = experiment: Resistance test by daily propagation at 0.25 MIC; type: cell-based, Escherichia coli; conditions: 7 days at 0.25 MIC (25 μM), then 1 MIC (100 μM) overnight
Experimental: After 7 days, the sequentially-propagated E. coli cells were contacted with LB with 1 MIC of NPIMA (100 μM) and incubated overnight to allow any putative resistant cells to grow and increase the turbidity.

E. coli BW25113 = experiment: Lysis assays (total protein and DNA in supernatants); type: cell-based, Escherichia coli; conditions: 100 μM, 1 hr
Experimental: FIG. 5. NPIMA lyses Escherichia coli, Pseudomonas aeruginosa, and Staphylococcus aureus. Total protein (a) and DNA (b) found in supernatants as evidence of cell lysis after treatment of cells at a turbidity of 0.8 at 600 nm with 100 μM NPIMA after 1 hr for E. coli and P. aeruginosa and 6 hr for S. aureus. NPIMA, 5-nitro-3-phenyl-1H-indol-2-yl-methylamine hydrochloride.
Exponentially-growing E. coli BW25113 cells (turbidity 0.8 at 600 nm) were washed twice with 0.85% NaCl, resuspended in 1 ml of 1×PBS, and NPIMA (100 μM) was added for 1 hr for E. coli and P. aeruginosa and 6 hr for S. aureus with shaking at 250 rpm (0.1% DMSO was used as the negative control). Cell supernatants were collected after centrifuging at 6,500 g (4° C. for 15 min), and total protein was measured by the Bicinchoninic Acid (BCA) protein assay Kit (Prod #23227; Pierce). DNA in the supernatant (199 μl) was detected by adding 1 μl of Picogreen (P7589; Invitrogen) and incubating for 5 min at room temperature in the dark room. The fluorescence signal was read by a Tecan microplate reader (Infinite M200PRO) with 480 nm excitation and 520 nm emission by utilizing a calibration curved made with plasmid pEX18Ap at 0, 0.004, 0.008, 0.016, 0.063, 0.125, 0.25, and 0.5 ng/μl.

E. coli persister cells = experiment: ChemBridge screen for persister cell killing; type: cell-based, Escherichia coli; conditions: 100 μM, 24 hr
Experimental: FIG. 1. […] Escherichia coli persister cells were treated for 24 hr at 100 μM with: • 1: N-(3,4-dichlorophenyl)-N′-(3-fluorophenyl) thiourea; • 2: 2-({2-[(4-bromophenyl)amino]-4-quinazolinyl}amino)ethanol hydrochloride; • 3: 2-[(6-phenyl-2,3,4,9-tetrahydro-1H-carbazol-1-yl)amino] ethanol; • 4: 1-(3,6-dichloro-9H-carbazol-9-yl)-3-(2-methyl-1H-imidazol-1-yl)-2-propanol; • 5: N-[2-(4-fluorophenyl)ethyl]-N′-(4-nitrophenyl) thiourea; • 6: N-(4-chlorobenzyl)-N′-4-pyridinylthiourea; • 7: N′-(3,5-dichloro-2-hydroxybenzylidene)-2-oxo-4-phenyl-3-pyrrolidinecarbohydrazide; and • 8: [(5-nitro-3-phenyl-1H-indol-2-yl)methyl]amine hydrochloride (NPIMA, structure shown in inset).
To identify compounds that kill E. coli persister cells, 10,000 compounds of the DIVERset Library from ChemBridge (San Diego, CA) were tested by adding 4 μl of each (in DMSO, final concentration 100 μM) to 186 μl of LB in 96-well plates along with 10 μl of persister cells; the persister cells were added after the ChemBridge chemical since LB wakes persister cells (Kim, Yamasaki, et al., 2018). For the negative control, pure DMSO (final concentration 2 vol %) was used. The degree of inhibition was determined by the change in turbidity at 600 nm after 24 hr. The best 26 compounds were re-tested with the same conditions.
To screen directly for killing persister cells, a high-throughput approach using 96-well microtiter plates was devised that consisted of (a) washing persister cells formed from exponentially-growing cells using rifampicin pretreatment followed by ampicillin treatment, (b) adding 10 μl of the persister cells to 190 μl of LB containing one each of the 10,000 compounds of the DiverSet library dissolved in dimethyl sulfoxide (100 μM final concentration), and (c) monitoring for growth via change in turbidity for 24 hr. With this approach, we allowed for up to a 140-fold change in turbidity (0.005 could be increased to 0.69).

## Cl.NCc1[nH]c2ccc([N+](=O)[O-])cc2c1-c1ccccc1 [NPIMA, [(5-nitro-3-phenyl-1H-indol-2-yl)methyl]amine hydrochloride]
[1]
  effectiveness relative to cisplatin: less effective than cisplatin
E coli
  resistance after propagation: all of the E. coli cells were killed
E. coli BW25113
  increase in DNA in the supernatants compared to DMSO alone: 3.8±0.8
  increase in total cell protein in supernatants compared to DMSO alone: 10±2
E. coli persister cells
  change of turbidity during first and second screen: reduced the turbidity
E. coli persister cells; hydrochloride
  persister killing, second screen (FIG. 1): substantially more effective than the other compounds
E. coli persister cells; listed as 8, hydrochloride
  persister killing, second screen (FIG. 1): Most effective
